How the values were obtained:
[1] = Rat bioluminescence imaging after coelenterazine and Renilla luciferase via bilateral jugular cannulas; assay type: in vivo; settings: coelenterazine 50 mM in Hank's balanced salt solution in one jugular cannula, Renilla luciferase 5 mg/ml in the opposite
Procedure: A rat was equipped with bilateral jugular cannulas. To one was applied a solution of coelenterazine (50 mM) in Hank's balanced salt solution and to the opposite jugular cannula was administered Renilla luciferase, 5 mg/ml in Hank's balanced slat solution. An image was obtained and was pseudocoloured with Scion Image according to the light level obtained by a Princeton Instruments camera and is shown at FIG. 19.
A rat was equipped with bilateral jugular cannulas. To one was applied a solution of coelenterazine (50 mM) in Hank's balanced salt solution and to the opposite jugular cannula was administered Renilla luciferase, 5 mg/ml in Hank's balanced slat solution. An image was obtained and was pseudocoloured with Scion Image according to the light level obtained by a Princeton Instruments camera and is shown at FIG. 20.
A rat was equipped with bilateral jugular cannulas. To one was applied a solution of coelenterazine (50 mM) in Hank's balanced salt solution and to the opposite jugular cannula was administered Renilla luciferase, 5 mg/ml in Hank's balanced slat solution. An image was obtained and was pseudocoloured with Scion Image according to the light level obtained by a Princeton Instruments camera and is shown at FIG. 21.

[2] = tested on: aequorin photoprotein luciferase or luciferase from Renilla; test: Duration of glow of luciferin in water after adding luciferase in presence of Ca++; assay type: biochemical; settings: 5 mg luciferin in one liter of water, about 10 mgs luciferase, Ca++ present; depends on water temperature
Procedure: Thus, for example, 5 mg of luciferin, such as coelenterazine, in one liter of water will glow brightly for at least about 10 to 20 minutes, depending on the temperature of the water, when about 10 mgs of luciferase, such as aequorin photoprotein luciferase or luciferase from Renilla, is added thereto in presence of Ca^++. Increasing the concentration of luciferase, for example, to 100 mg/L, provides a particularly brilliant light display.

Renilla luciferase = target: T1, Renilla luciferase (Renilla reniformis, UniProt P27652); test: Visible glow of coelenterazine with crude extract of bacteria expressing Renilla luciferase in assay buffer; assay type: biochemical; settings: about 0.005 mg coelenterazine, about 0.25 ml crude extract, 100 ml assay buffer
T1 construct: made in house
T1 sequence (P27652 1-311): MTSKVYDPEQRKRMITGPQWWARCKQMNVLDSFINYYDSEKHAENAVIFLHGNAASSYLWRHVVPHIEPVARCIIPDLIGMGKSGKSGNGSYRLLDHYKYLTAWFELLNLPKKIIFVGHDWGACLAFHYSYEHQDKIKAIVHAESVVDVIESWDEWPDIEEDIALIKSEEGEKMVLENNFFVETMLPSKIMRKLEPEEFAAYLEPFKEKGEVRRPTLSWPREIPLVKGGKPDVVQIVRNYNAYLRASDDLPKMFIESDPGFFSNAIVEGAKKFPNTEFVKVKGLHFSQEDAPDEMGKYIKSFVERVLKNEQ
Procedure: In certain embodiments herein, about 1 to 10 mg, or preferably 2-5 mg, more preferably about 3 mg of coelenterazine will be used with about 100 mg of Renilla luciferase. The precise amounts, of course can be determined empirically, and, also will depend to some extent on the ultimate concentration and application.

Oc1ccc(Cc2nc3c(Cc4ccccc4)nc(-c4ccc(O)cc4)cn3c2O)cc1 [coelenterazine]
bioluminescence image, liver (FIG. 20) [1]: patchy contrast regions in the liver | bioluminescence image, whole animal (FIG. 21) [1]: perfusion of bioluminescence in the whole animal | time of bright glow [2]: 10 to 20 min | glow produced (Renilla luciferase): sufficient to produce a visible and lasting glow
